Where “and” joins values, the source holds several entries; their conditions need not be identical. Equal values may be shown once. Inconclusive results and toxic doses are left out.
System: L1210 leukemia ip in BDF1 mice, survival T/C
Assay: NCI In Vivo Anticancer Drug Screen. Data for tumor model L1210 Leukemia (intraperitoneal) in B6D2F1 (BDF1) mice
Settings: endpoint: mean survival time, higher = longer survival
In short: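 Transplantable tumor model; survival measured in treated vs vehicle control mice. Value = treated/control.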

[1] = dose: 100.0 mg/kg/injection, schedule: Q04DX003 (ip), vehicle: saline with Tween-80
[2] = dose: 200.0 mg/kg/injection, schedule: Q04DX003 (ip), vehicle: saline with Tween-80
[3] = dose: 400.0 mg/kg/injection, schedule: Q04DX003 (ip), vehicle: saline with Tween-80

With `C=CC(=O)OCC(C)(C)C` the T/C (dose: 100.0 mg/kg/injection, schedule: Q04DX002 (ip), vehicle: saline) was 100 % of control and 103 % of control, the T/C (dose: 200.0 mg/kg/injection, schedule: Q04DX002 (ip), vehicle: saline) was 100 % of control and 107 % of control and the T/C (dose: 800.0 mg/kg/injection, schedule: Q04DX002 (ip), vehicle: saline) was 97 % of control.

In the case of `C/C(=N/N=C(N)N)c1ccc(NC(=S)Nc2ccc(/C(C)=N/N=C(N)N)cc2)cc1`, the T/C (dose: 20.0 mg/kg/injection, schedule: Q01DX009 (ip), vehicle: water) is reported as 176 % of control.

With `Oc1ccccc1N=CC1CCCCC1` the T/C [1] was 87 % of control, the T/C [2] was 88 % of control and the T/C [3] was 92 % of control.

`CC1CCCC[N-]1.CC1CCCC[N-]1.N#C[S-].N#C[S-].[Cu]` (stereo not given) was tested, and the T/C (dose: 5.0 mg/kg/injection, schedule: Q01DX001 (ip), vehicle: saline) was 94 % of control, the T/C (dose: 10.0 mg/kg/injection, schedule: Q01DX001 (ip), vehicle: saline) was 86 % of control and the T/C (dose: 20.0 mg/kg/injection, schedule: Q01DX001 (ip), vehicle: saline) was 91 % of control. For the same compound, the T/C (dose: 40.0 mg/kg/injection, schedule: Q01DX001 (ip), vehicle: saline) was 100 % of control.

`CCCCCCCCCCCCCCCCCCc1ccc(O)cc1O` was tested, and the T/C [1] was 89 % of control, the T/C [2] was 92 % of control and the T/C [3] was 86 % of control.

In the case of `CC(=O)OC1C=CCC23C(=O)C=CC(=O)C12C(=O)c1ccccc1C3=O` (stereo not given), the T/C (dose: 0.25 mg/kg/injection, schedule: Q04DX003 (ip), vehicle: water) is reported as 95 % of control, the T/C (dose: 0.5 mg/kg/injection, schedule: Q04DX003 (ip), vehicle: water) is reported as 100 % of control and the T/C (dose: 1.0 mg/kg/injection, schedule: Q04DX003 (ip), vehicle: water) is reported as 102 % of control. For the same compound, the T/C (dose: 2.0 mg/kg/injection, schedule: Q04DX003 (ip), vehicle: water) was 97 % of control, the T/C (dose: 4.0 mg/kg/injection, schedule: Q04DX003 (ip), vehicle: water) was 102 % of control and the T/C (dose: 8.0 mg/kg/injection, schedule: Q04DX003 (ip), vehicle: water) was 100 % of control. The T/C (dose: 16.0 mg/kg/injection, schedule: Q04DX003 (ip), vehicle: saline) was 102 % of control, the T/C (dose: 16.0 mg/kg/injection, schedule: Q04DX003 (ip), vehicle: water) was 97 % of control and the T/C (dose: 32.0 mg/kg/injection, schedule: Q04DX003 (ip), vehicle: saline) was 100 % of control. The T/C (dose: 64.0 mg/kg/injection, schedule: Q04DX003 (ip), vehicle: saline) was 100 % of control.

For `CCOC(=O)c1oc2c(C(C)=O)c(O)ccc2c1C`, the T/C (dose: 100.0 mg/kg/injection, schedule: Q04DX002 (ip), vehicle: Klucel (hydroxypropylcellulose) (HPC)) was 101 % of control and 103 % of control and 92 % of control, the T/C (dose: 200.0 mg/kg/injection, schedule: Q04DX002 (ip), vehicle: Klucel (hydroxypropylcellulose) (HPC)) was 101 % of control and 103 % of control and 92 % of control and the T/C (dose: 400.0 mg/kg/injection, schedule: Q04DX002 (ip), vehicle: Klucel (hydroxypropylcellulose) (HPC)) was 108 % of control. For the same compound, the T/C (dose: 800.0 mg/kg/injection, schedule: Q04DX002 (ip), vehicle: Klucel (hydroxypropylcellulose) (HPC)) was 93 % of control and 95 % of control.

`Cc1ccc(S(=O)(=O)OC2CCC(C(C)(C)C)C(Cl)C2)cc1` (stereo not given) was tested, and the T/C (dose: 100.0 mg/kg/injection, schedule: Q01DX001 (ip), vehicle: Klucel (hydroxypropylcellulose) (HPC)) was 103 % of control, the T/C (dose: 200.0 mg/kg/injection, schedule: Q01DX001 (ip), vehicle: Klucel (hydroxypropylcellulose) (HPC)) was 87 % of control and the T/C (dose: 400.0 mg/kg/injection, schedule: Q01DX001 (ip), vehicle: Klucel (hydroxypropylcellulose) (HPC)) was 94 % of control.

For `CN1CSCSC1`, the T/C (dose: 50.0 mg/kg/injection, schedule: Q01DX009 (ip), vehicle: saline) was 104 % of control, the T/C (dose: 100.0 mg/kg/injection, schedule: Q01DX009 (ip), vehicle: saline) was 98 % of control and the T/C [1] was 101 % of control. For the same compound, the T/C [2] was 100 % of control and the T/C [3] was 97 % of control.

For `Cc1ncsc1CCO`, the T/C (dose: 100.0 mg/kg/injection, schedule: Q01DX001 (ip), vehicle: saline with Tween-80) was 98 % of control, the T/C (dose: 200.0 mg/kg/injection, schedule: Q01DX001 (ip), vehicle: saline with Tween-80) was 102 % of control and the T/C (dose: 400.0 mg/kg/injection, schedule: Q01DX001 (ip), vehicle: saline with Tween-80) was 94 % of control.

With `Cc1cccc2c1OC(=O)CCC21CCCCC1=O` (stereo not given) the T/C (dose: 100.0 mg/kg/injection, schedule: Q01DX009 (ip), vehicle: saline with Tween-80) was 101 % of control, the T/C (dose: 200.0 mg/kg/injection, schedule: Q01DX009 (ip), vehicle: saline with Tween-80) was 98 % of control and the T/C (dose: 400.0 mg/kg/injection, schedule: Q01DX009 (ip), vehicle: saline with Tween-80) was 97 % of control.

For `c1ccc(CNC(Cc2ccccc2)c2ccc(OCc3ccccc3)cc2)cc1` (stereo not given), the T/C (dose: 100.0 mg/kg/injection, schedule: Q01DX009 (ip), vehicle: Klucel (hydroxypropylcellulose) (HPC)) was 93 % of control, the T/C (dose: 200.0 mg/kg/injection, schedule: Q01DX009 (ip), vehicle: Klucel (hydroxypropylcellulose) (HPC)) was 89 % of control and the T/C (dose: 400.0 mg/kg/injection, schedule: Q01DX009 (ip), vehicle: Klucel (hydroxypropylcellulose) (HPC)) was 89 % of control.
